Test [1] has as its system animal models. As to conditions: cited from earlier work.
The subject of test [2] is plasma cholesterol. The test is described as follows: Effect of Orlistat/XENICAL and cholestyramine/[…] on plasma cholesterol in volunteers. The test is classed as in vivo, human. As to conditions: for plasma cholesterol, mean: mean of volunteers. The text has this: The effect of a combination of Orlistat/XENICAL® and a bile acid sequestrant cholestyramine/[…]® on plasma cholesterol was examined.
Three hyper-cholesterolemic volunteers, one female, 2 males, […] cholesterol level: They continued on a combination of […], […]

The test system of test [3] is fat absorption. As to conditions: humans; cited from earlier work.

The structures appear in SMILES notation.

For the molecule `CCCCCCCCCCC[C@@H](C[C@@H]1OC(=O)[C@H]1CCCCCC)OC(=O)[C@H](CC(C)C)NC=O` [Xenical, Orlistat], the body weight result in test [1] is reported as “reduce body weight”. The results for the fat absorption result in test [1] and in test [3] were “inhibit fat absorption” and “potent inhibition of fat absorption”, respectively. For the same molecule, the plasma cholesterol course entry in test [2] (all three individuals, end of 6 weeks treatment with Xenical b.i.d.) is reported as “reasonably stable”. Moreover, the “plasma cholesterol, mean” value in test [2] (week 4, Xenical b.i.d.) came to 252 mg/100 ml; in test [2] (week 5, Xenical b.i.d.), 225 mg/100 ml; in test [2] (week 6, Xenical b.i.d.), 247 mg/100 ml; in test [2] (week 11, Xenical b.i.d. after cessation of Quantalan) it was 253 mg/100 ml; in test [2] (week 13, Xenical b.i.d. after cessation of Quantalan), 263 mg/100 ml. Moreover, the plasma cholesterol in test [2] (volunteer 1, week 4, Xenical b.i.d.) was determined as 252 mg/100 ml; in test [2] (volunteer 1, week 5, Xenical b.i.d.), 239 mg/100 ml; in test [2] (volunteer 1, week 6, Xenical b.i.d.) it was 233 mg/100 ml; in test [2] (volunteer 1, week 11, Xenical b.i.d. after cessation of Quantalan) it was 247 mg/100 ml; in test [2] (volunteer 2, week 4, Xenical b.i.d.) it was 236 mg/100 ml; in test [2] (volunteer 2, week 5, Xenical b.i.d.) it was 212 mg/100 ml. Moreover, the plasma cholesterol in test [2] (volunteer 2, week 6, Xenical b.i.d.) was found to be 232 mg/100 ml; in test [2] (volunteer 2, week 11, Xenical b.i.d. after cessation of Quantalan) it was 230 mg/100 ml; in test [2] (volunteer 2, week 13, Xenical b.i.d. after cessation of Quantalan) it was 226 mg/100 ml; in test [2] (volunteer 3, week 4, Xenical b.i.d.), 269 mg/100 ml; in test [2] (volunteer 3, week 6, Xenical b.i.d.), 277 mg/100 ml; in test [2] (volunteer 3, week 11, Xenical b.i.d. after cessation of Quantalan) it was 282 mg/100 ml. Besides, the plasma cholesterol in test [2] (volunteer 3, week 13, Xenical b.i.d. after cessation of Quantalan) was 300 mg/100 ml.

These data come from US20060189574A1, “Method of treating high plasma cholesterol levels” (priority 2000, published 2006).
